Results as given in doi:10.1101/2024.08.13.607785v1 (biorxiv, 2024).

What was measured:
[1] = target: Isoform 4 of TRAF2 and NCK-interacting protein kinase ; TNIK ; Q9UKE5-4 (Homo sapiens, UniProt Q9UKE5); assay: biochemical; set-up: species or system human cell line lysate
[2] = target: Calcium/calmodulin-dependent protein kinase kinase 2 ; CAMKK2 ; Q96RR4 (Homo sapiens, UniProt Q96RR4); assay: biochemical; set-up: species or system human cell line lysate
[3] = target: Cyclin-dependent kinase 16 ; CDK16 ; Q00536 (Homo sapiens, UniProt Q00536); assay: biochemical; set-up: species or system human cell line lysate
Cyclin-dependent kinase 16 ; CDK16 ; Q00536, sequence (Q00536 whole entry, the tested form may be a part, one chain of several): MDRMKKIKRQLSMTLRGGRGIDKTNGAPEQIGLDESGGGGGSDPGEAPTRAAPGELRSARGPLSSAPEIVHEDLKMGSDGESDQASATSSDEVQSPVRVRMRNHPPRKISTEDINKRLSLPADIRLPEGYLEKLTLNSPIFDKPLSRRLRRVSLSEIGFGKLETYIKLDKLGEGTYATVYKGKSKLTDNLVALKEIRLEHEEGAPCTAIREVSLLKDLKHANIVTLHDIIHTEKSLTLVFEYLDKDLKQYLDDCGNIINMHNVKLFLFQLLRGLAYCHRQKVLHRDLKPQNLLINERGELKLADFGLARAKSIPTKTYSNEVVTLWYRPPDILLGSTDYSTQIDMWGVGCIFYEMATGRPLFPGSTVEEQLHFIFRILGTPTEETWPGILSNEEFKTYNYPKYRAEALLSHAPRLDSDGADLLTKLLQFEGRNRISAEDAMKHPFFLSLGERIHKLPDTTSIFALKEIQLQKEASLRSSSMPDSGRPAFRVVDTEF

[4] = target: Epithelial discoidin domain-containing receptor 1 ; DDR1 ; Q08345 (Homo sapiens, UniProt Q08345); assay: biochemical; set-up: species or system human cell line lysate
[5] = target: T1, Discoidin domain-containing receptor 2 ; DDR2 ; Q16832 (Homo sapiens, UniProt Q16832); assay: biochemical; set-up: species or system human cell line lysate
T1 sequence (Q16832 1-855): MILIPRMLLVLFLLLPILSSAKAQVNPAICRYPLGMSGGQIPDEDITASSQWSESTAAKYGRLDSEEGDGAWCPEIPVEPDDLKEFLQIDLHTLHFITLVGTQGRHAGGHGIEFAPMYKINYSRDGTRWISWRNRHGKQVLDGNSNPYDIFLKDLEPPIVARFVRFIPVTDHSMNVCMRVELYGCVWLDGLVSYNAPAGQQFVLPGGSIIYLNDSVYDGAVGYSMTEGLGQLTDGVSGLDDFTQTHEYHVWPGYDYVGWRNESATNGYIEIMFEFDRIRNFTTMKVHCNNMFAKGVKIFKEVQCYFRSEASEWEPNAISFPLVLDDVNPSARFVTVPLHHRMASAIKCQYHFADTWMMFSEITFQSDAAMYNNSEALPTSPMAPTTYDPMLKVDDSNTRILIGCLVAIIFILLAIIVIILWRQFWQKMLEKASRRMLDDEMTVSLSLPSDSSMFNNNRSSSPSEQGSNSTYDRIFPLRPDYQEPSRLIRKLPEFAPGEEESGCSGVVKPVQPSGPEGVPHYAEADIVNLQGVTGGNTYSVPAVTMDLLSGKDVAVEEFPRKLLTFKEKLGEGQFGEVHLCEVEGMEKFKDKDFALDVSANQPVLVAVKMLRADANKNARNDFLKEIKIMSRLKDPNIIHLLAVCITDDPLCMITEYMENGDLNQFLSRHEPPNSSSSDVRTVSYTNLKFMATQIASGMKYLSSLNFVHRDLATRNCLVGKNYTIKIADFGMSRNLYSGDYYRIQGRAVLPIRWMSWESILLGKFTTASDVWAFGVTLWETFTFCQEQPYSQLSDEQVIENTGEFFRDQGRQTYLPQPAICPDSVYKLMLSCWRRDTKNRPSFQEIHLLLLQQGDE

[6] = target: High affinity nerve growth factor receptor ; NTRK1 ; P04629 (Homo sapiens, UniProt P04629); assay: biochemical; set-up: species or system human cell line lysate
High affinity nerve growth factor receptor ; NTRK1 ; P04629, sequence (P04629 whole entry, canonical isoform): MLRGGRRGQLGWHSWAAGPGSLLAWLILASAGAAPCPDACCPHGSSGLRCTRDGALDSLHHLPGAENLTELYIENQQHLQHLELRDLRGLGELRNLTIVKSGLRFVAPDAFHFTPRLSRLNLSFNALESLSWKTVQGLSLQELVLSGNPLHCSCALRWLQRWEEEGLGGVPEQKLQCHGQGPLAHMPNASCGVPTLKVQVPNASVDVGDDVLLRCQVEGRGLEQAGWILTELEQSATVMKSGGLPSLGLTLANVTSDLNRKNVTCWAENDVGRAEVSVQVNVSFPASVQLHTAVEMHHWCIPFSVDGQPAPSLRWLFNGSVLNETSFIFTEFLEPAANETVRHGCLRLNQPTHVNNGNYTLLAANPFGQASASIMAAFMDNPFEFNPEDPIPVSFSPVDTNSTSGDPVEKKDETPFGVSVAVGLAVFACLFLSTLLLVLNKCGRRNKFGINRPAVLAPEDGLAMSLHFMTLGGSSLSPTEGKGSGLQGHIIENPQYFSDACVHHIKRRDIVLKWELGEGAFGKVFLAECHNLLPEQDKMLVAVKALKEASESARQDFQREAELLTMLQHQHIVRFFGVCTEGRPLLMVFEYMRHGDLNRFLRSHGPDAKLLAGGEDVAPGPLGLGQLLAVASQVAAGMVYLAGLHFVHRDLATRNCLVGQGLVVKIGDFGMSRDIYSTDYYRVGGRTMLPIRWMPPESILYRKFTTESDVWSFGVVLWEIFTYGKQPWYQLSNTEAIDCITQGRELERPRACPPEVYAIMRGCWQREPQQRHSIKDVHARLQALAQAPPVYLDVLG

[7] = target: Isoform 2 of Cyclin-dependent kinase 17 ; CDK17 ; Q00537-2 (Homo sapiens, UniProt Q00537); assay: biochemical; set-up: species or system human cell line lysate
[8] = target: Cyclin-dependent kinase 7 ; CDK7 ; P50613 (Homo sapiens, UniProt P50613); assay: biochemical; set-up: species or system human cell line lysate
[9] = target: Cyclin-dependent kinase 6 ; CDK6 ; Q00534 (Homo sapiens, UniProt Q00534); assay: biochemical; set-up: species or system human cell line lysate
[10] = target: Cyclin-dependent kinase 1 ; CDK1 ; P06493 (Homo sapiens, UniProt P06493); assay: biochemical; set-up: species or system human cell line lysate
Cyclin-dependent kinase 1 ; CDK1 ; P06493, sequence (P06493 whole entry, one chain of several): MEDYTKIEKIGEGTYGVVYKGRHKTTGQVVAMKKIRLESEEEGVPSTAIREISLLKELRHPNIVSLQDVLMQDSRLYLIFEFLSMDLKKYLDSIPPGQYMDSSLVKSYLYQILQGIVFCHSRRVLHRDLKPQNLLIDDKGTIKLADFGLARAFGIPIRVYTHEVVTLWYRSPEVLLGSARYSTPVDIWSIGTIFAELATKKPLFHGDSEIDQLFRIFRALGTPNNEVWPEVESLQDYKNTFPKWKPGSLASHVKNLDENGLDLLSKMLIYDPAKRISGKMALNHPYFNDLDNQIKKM

[11] = target: Tyrosine-protein kinase HCK ; HCK ; P08631 (Homo sapiens, UniProt P08631); set-up: species or system mixed lysate of K562, MV4-11, THP-1, NCI-H1155; conditions: DIA-MS residual binding; binder
Tyrosine-protein kinase HCK ; HCK ; P08631, sequence (P08631 whole entry, canonical isoform): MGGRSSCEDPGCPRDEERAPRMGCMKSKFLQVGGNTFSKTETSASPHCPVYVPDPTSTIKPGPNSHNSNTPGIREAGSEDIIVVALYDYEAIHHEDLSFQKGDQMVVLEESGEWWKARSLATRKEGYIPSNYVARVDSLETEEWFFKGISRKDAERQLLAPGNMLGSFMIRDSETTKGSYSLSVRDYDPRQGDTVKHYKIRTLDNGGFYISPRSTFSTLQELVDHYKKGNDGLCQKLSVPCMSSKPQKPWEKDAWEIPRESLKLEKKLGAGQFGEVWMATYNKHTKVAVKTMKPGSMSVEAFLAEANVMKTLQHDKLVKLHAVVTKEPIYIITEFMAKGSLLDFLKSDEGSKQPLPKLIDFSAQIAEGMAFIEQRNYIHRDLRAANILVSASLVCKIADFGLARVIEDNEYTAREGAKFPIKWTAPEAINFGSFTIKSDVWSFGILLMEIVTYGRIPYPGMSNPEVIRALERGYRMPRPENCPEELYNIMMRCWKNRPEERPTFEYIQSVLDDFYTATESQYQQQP

[12] = target: Isoform 2 of Tyrosine-protein kinase Lyn ; LYN-2 ; P07948-2 (Homo sapiens, UniProt P07948); set-up: species or system mixed lysate of K562, MV4-11, THP-1, NCI-H1155; conditions: DIA-MS residual binding; binder
[13] = target: Integrin-linked protein kinase ; ILK ; Q13418 (Homo sapiens, UniProt Q13418); set-up: species or system mixed lysate of K562, MV4-11, THP-1, NCI-H1155; conditions: DIA-MS residual binding; binder
Integrin-linked protein kinase ; ILK ; Q13418, sequence (Q13418 whole entry): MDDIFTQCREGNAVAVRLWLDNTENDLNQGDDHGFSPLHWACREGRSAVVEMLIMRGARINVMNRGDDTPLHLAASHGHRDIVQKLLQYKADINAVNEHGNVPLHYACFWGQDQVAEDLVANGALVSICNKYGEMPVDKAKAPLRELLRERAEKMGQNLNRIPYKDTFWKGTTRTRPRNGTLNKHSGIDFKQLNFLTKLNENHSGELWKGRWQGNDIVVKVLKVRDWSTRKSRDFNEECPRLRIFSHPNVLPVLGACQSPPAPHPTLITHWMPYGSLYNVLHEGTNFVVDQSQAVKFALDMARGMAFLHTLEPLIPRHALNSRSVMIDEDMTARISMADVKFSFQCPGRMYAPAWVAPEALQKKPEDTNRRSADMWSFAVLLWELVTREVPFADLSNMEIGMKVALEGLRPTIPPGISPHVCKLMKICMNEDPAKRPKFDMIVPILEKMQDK

[14] = target: Activin receptor type-1B ; ACVR1B ; P36896 (Homo sapiens, UniProt P36896); set-up: species or system mixed lysate of K562, MV4-11, THP-1, NCI-H1155; conditions: DIA-MS residual binding; binder
Activin receptor type-1B ; ACVR1B ; P36896, sequence (P36896 whole entry): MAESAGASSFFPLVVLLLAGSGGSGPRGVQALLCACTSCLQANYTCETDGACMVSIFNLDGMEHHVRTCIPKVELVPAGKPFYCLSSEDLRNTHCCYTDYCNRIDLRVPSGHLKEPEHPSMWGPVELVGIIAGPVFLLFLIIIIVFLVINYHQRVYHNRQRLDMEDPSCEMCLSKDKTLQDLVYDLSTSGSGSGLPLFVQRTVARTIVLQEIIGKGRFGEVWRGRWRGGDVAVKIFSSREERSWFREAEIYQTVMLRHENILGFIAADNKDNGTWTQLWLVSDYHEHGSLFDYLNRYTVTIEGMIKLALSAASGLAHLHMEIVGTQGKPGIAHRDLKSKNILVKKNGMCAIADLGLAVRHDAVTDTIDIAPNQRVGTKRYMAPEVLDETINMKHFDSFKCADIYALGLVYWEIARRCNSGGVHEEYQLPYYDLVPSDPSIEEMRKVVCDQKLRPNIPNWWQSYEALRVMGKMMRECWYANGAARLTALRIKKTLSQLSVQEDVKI

[15] = target: Tyrosine-protein kinase CSK ; CSK ; P41240 (Homo sapiens, UniProt P41240); set-up: species or system mixed lysate of K562, MV4-11, THP-1, NCI-H1155; conditions: binder
[16] = target: Tyrosine-protein kinase Fgr ; FGR ; P09769 (Homo sapiens, UniProt P09769); set-up: species or system mixed lysate of K562, MV4-11, THP-1, NCI-H1155; conditions: binder

Calcium/calmodulin-dependent protein kinase kinase 2 ; CAMKK2 ; Q96RR4, sequence (Q96RR4 whole entry, one chain of several): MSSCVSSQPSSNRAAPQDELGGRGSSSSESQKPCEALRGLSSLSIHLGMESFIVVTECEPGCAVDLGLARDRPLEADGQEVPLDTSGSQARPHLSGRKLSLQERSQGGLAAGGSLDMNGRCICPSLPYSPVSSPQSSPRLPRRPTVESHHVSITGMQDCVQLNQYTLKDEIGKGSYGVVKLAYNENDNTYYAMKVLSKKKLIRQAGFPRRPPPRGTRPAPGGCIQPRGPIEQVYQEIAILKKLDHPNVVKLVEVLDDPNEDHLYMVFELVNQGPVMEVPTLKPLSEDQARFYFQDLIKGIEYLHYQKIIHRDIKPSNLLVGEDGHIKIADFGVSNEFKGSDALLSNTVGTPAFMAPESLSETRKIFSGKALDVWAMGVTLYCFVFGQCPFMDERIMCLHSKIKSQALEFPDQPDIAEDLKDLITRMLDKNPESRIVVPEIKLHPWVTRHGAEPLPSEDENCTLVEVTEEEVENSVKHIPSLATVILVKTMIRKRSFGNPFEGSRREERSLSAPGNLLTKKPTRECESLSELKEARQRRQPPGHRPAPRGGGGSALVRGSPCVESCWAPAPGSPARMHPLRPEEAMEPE
Isoform 4 of TRAF2 and NCK-interacting protein kinase ; TNIK ; Q9UKE5-4, sequence (Q9UKE5 whole entry, canonical isoform, one chain of several): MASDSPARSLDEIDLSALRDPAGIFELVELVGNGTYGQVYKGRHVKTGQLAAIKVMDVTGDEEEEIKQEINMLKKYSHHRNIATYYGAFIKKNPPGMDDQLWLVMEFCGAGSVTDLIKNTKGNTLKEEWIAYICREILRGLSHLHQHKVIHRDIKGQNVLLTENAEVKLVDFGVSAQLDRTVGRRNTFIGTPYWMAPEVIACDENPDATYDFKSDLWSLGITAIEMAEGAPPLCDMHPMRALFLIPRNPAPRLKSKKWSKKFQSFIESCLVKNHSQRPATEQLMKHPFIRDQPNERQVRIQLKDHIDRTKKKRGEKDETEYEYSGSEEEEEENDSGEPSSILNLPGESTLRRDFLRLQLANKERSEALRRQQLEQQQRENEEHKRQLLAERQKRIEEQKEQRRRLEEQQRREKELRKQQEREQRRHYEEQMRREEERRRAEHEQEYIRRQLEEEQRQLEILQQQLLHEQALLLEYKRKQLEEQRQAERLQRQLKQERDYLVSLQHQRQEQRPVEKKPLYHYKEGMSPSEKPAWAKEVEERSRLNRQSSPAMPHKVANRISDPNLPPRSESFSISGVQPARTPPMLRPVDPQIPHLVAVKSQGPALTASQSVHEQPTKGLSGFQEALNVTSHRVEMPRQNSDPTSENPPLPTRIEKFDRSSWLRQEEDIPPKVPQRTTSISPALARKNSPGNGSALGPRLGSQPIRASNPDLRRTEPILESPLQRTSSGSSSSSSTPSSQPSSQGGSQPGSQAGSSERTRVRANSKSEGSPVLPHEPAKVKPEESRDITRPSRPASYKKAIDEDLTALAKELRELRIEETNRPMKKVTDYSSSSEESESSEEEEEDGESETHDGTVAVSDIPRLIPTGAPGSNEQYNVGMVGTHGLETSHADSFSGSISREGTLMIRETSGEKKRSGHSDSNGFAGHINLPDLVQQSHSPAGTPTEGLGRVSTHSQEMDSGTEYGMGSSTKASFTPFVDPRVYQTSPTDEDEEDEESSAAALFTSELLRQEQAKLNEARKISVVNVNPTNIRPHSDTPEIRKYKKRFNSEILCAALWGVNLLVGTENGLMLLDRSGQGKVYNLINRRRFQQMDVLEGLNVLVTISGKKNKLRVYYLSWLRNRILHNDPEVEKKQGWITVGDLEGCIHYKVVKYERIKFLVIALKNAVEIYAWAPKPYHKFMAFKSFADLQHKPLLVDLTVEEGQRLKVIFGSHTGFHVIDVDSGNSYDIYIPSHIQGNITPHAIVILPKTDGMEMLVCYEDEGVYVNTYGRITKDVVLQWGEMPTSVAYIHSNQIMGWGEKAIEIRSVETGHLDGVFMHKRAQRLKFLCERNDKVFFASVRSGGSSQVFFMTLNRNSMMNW

Compound `COc1cc(F)ccc1-c1ncnc(Nc2cccc(C[S@](C)(=N)=O)c2)n1` [BAY-1143572] has an IC50 [1] of over 10 µM, an IC50 [2] of over 10 µM and an IC50 [3] of over 10 µM. For the same compound, the IC50 [4] was over 10 µM, the IC50 [5] was over 10 µM and the IC50 [6] was over 10 µM. The IC50 [7] was over 10 µM.
Compound `COc1cc(F)ccc1-c1cc(Nc2cc(CS(C)(=N)=O)ccn2)ncc1F` (stereo not shown) [BAY-1251152] has an IC50 [8] of over 10 µM, an IC50 [9] of over 10 µM and an IC50 [10] of over 10 µM.
`Cc1nc(Nc2ncc(C(=O)Nc3c(C)cccc3Cl)s2)cc(N2CCN(CCO)CC2)n1` [dasatinib] was tested, and the “DIA-MS / % Intensity (30 µM/DMSO)” value [11] was 2.086%, the “DIA-MS / % Intensity (30 µM/DMSO)” value [12] was 1.98% and the “DIA-MS / % Intensity (30 µM/DMSO)” value [13] was 38.96%. The “DIA-MS / % Intensity (30 µM/DMSO)” value [14] was 38.22%, the “DIA-MS / % Intensity (30 µM/DMSO)” value [15] was 0.9845% and the “DIA-MS / % Intensity (30 µM/DMSO)” value [16] was 0.4999%.
